Experimental data published in the supplement of paper PMC11208160.

assay: recombinant barcode read abundance after kanamycin selection (control-corrected) (log10(CPM+1)); higher = more efficient recombination; sequences stand for … in AGTGCAGAGAAAATCGGCCAGTTTTCTCTGCCTGCAGTCCGCATGCCGT…AGATTTATGCAGCGGACTGCCTTTCTCCCAAAGTGATAAACCGGACAGTATCATGGACCGGTTTTCCCGGTAATCCGTATTTGCAAGGTTGGTTTCACT; site = the 11-nt target
How it was run: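 Each value is log10(CPM+1). It describes recombination efficiency, taken as averaged, control-corrected counts per million of barcodes at recombinant junctions. The pooled E. coli library paired targets with IS621 bridge RNA target-binding loops, was co-electroporated with a donor plasmid, and was plated twice on chloramphenicol/ampicillin LB agar (control) and twice on chloramphenicol/ampicillin/kanamycin containing 0.1 mM IPTG.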
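Note: IS621 recombinase and bridge RNA in Escherichia coli cells.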

Sequence | recombinant barcode read abundance (log10)
AGCATTCCTTGGGTTCTAACCTGTTGCCT (site AGCATTCCTAG) | 0.394
AGCCCTCCTTGGGTTCTAACCTGTTGCTC (site AGCCCTCCTAA) | 0.01
AGCCCTCCTTGGGTTCTAACCTGTTGCTC (site AGCCCTCCTCA) | 0.26
AGCCCTCCTTGGGTTCTAACCTGTTGCTC (site AGCCCTCCTGA) | 1.19
AGCCCTCCTTGGGTTCTAACCTGTTGCTC (site AGCCCTCCTTA) | 0.0233
AGCGGTCCTTGGGTTCTAACCTGTTGCCT (site AGCGGACCTAG) | 0.797
AGCGGTCCTTGGGTTCTAACCTGTTGCCT (site AGCGGCCCTAG) | 1.05
AGCGGTCCTTGGGTTCTAACCTGTTGCCT (site AGCGGGCCTAG) | 0.409
AGCGGTCCTTGGGTTCTAACCTGTTGCCT (site AGCGGTCCTAG) | 1.89
AGCGTCGCTTGGGTTCTAACCTGTTGCCT (site AGCGTCGCTAG) | 1.45
AGCGTCGCTTGGGTTCTAACCTGTTGCCT (site TGCGTCGCTAG) | 0.16
AGCGTTGCTTGGGTTCTAACCTGTTGCCT (site AGCATTGCTAG) | 0.558
AGCGTTGCTTGGGTTCTAACCTGTTGCCT (site AGCCTTGCTAG) | 0.142
AGCGTTGCTTGGGTTCTAACCTGTTGCCT (site AGCGTTGCTAG) | 1.05
AGCGTTGCTTGGGTTCTAACCTGTTGCCT (site AGCTTTGCTAG) | 0.16
AGCTCCGCTTGGGTTCTAACCTGTTGCCT (site AGCTCCGCTAG) | 0.222
AGCTCCGCTTGGGTTCTAACCTGTTGCCT (site TGCTCGGCTAG) | 0.2
AGCTGATCTTGGGTTCTAACCTGTTGCCT (site AGCTGATCTAG) | 0.261
AGCTGATCTTGGGTTCTAACCTGTTGCCT (site CGCTGATCTAG) | 0.0237
AGCTGATCTTGGGTTCTAACCTGTTGCCT (site GGCTGATCTAG) | 0.147
AGCTGATCTTGGGTTCTAACCTGTTGCCT (site TGCTGATCTAG) | 0.015
AGCTGGGCTTGGGTTCTAACCTGTTGCGG (site AGCTGGGCTCC) | 1.6

Sequence | recombinant barcode read abundance (log10)
AGCTGGGCTTGGGTTCTAACCTGTTGCGG (site AGTTGGGCTCA) | 0.393
AGCTTAGCTTGGGTTCTAACCTGTTGCCT (site AGCTTAGCTAG) | 0.555
AGCTTAGCTTGGGTTCTAACCTGTTGCCT (site AGCTTAGCTCG) | 0.577
AGCTTAGCTTGGGTTCTAACCTGTTGCCT (site AGCTTAGCTGG) | 0.206
AGCTTAGCTTGGGTTCTAACCTGTTGCCT (site AGCTTAGCTTG) | 0.158
AGGAACCCTTGGGTTCTAACCTGTTGCTA (site AGGAACCCTAA) | 0.316
AGGAACCCTTGGGTTCTAACCTGTTGCTA (site AGGAACCCTCA) | 0.0647
AGGAACCCTTGGGTTCTAACCTGTTGCTA (site AGGAACCCTGA) | 0.02
AGGAACCCTTGGGTTCTAACCTGTTGCTA (site AGGAACCCTTA) | 1.44
AGGAACCCTTGGGTTCTAACCTGTTGCTC (site AGGAACCCTAA) | 0.19
AGGAACCCTTGGGTTCTAACCTGTTGCTC (site AGGAACCCTCA) | 1.05
AGGAACCCTTGGGTTCTAACCTGTTGCTC (site AGGAACCCTGA) | 0.574
AGGAACCCTTGGGTTCTAACCTGTTGCTC (site AGGAACCCTTA) | 0.0757
AGGAACTCTTGGGTTCTAACCTGTTGCCT (site AGGAACTCTAG) | 2.52
AGGAACTCTTGGGTTCTAACCTGTTGCCT (site CGGAACTCTAG) | 0.573
AGGAATCCTTGGGTTCTAACCTGTTGCTT (site AGGAATCCTAA) | 0.901
AGGAATCCTTGGGTTCTAACCTGTTGCTT (site AGGAGTCCTCA) | 0.0229
AGGACAACTTGGGTTCTAACCTGTTGCCT (site AGAACAACTAG) | 0.106
AGGACAACTTGGGTTCTAACCTGTTGCCT (site AGCACAACTAG) | 0.155
AGGACAACTTGGGTTCTAACCTGTTGCCT (site AGGACAACTAG) | 0.048
AGGACAACTTGGGTTCTAACCTGTTGCCT (site AGTACAACTAG) | 0.181
AGGAGCCCTTGGGTTCTAACCTGTTGCCT (site AGGAGCCCTAG) | 1.48

Sequence | recombinant barcode read abundance (log10)
AGGAGCCCTTGGGTTCTAACCTGTTGCCT (site AGGAGCCCTTG) | 0.0624
AGGAGTACTTGGGTTCTAACCTGTTGCTT (site AGGAGTACTAA) | 0.761
AGGAGTACTTGGGTTCTAACCTGTTGCTT (site GCATCCTCTTG) | 0.12
AGGCCCACTTGGGTTCTAACCTGTTGCAT (site AGGCCCACTAT) | 2.12
AGGCCCACTTGGGTTCTAACCTGTTGCAT (site GCTGAGTCTTA) | 0.109
AGGCCGGCTTGGGTTCTAACCTGTTGCCG (site AGGCCGCCTCG) | 0.294
AGGCCGGCTTGGGTTCTAACCTGTTGCCG (site AGGCCGGCTCG) | 0.329
AGGCCGTCTTGGGTTCTAACCTGTTGCGG (site AGGCCGTCTCC) | 0.815
AGGCCGTCTTGGGTTCTAACCTGTTGCGG (site CACTACCCTAA) | 0.357
AGGCGCCCTTGGGTTCTAACCTGTTGCAC (site AGGCGCCCTAT) | 0.249
AGGCGCCCTTGGGTTCTAACCTGTTGCAC (site AGGCGCCCTCT) | 0.112
AGGCGCCCTTGGGTTCTAACCTGTTGCAC (site AGGCGCCCTGT) | 1.33
AGGCGCCCTTGGGTTCTAACCTGTTGCAC (site AGGCGCCCTTT) | 0.0439
AGGCGTACTTGGGTTCTAACCTGTTGCCT (site AGACGTACTAG) | 0.0558
AGGCGTACTTGGGTTCTAACCTGTTGCCT (site AGCCGTACTAG) | 0.302
AGGCGTACTTGGGTTCTAACCTGTTGCCT (site AGGCGTACTAG) | 0.465
AGGCGTACTTGGGTTCTAACCTGTTGCCT (site AGTCGTACTAG) | 0.0768
AGGCGTCCTTGGGTTCTAACCTGTTGCCA (site AGGCGTCCTAG) | 0.181
AGGCGTCCTTGGGTTCTAACCTGTTGCCA (site AGGCGTCCTCG) | 0.056
AGGCGTCCTTGGGTTCTAACCTGTTGCCA (site AGGCGTCCTGG) | 0.315
AGGCGTCCTTGGGTTCTAACCTGTTGCCA (site AGGCGTCCTTG) | 0.802
AGGCTCCCTTGGGTTCTAACCTGTTGCCT (site AGACTCCCTAG) | 0.193

Sequence | recombinant barcode read abundance (log10)
AGGCTCCCTTGGGTTCTAACCTGTTGCCT (site AGCCTCCCTAG) | 0.0453
AGGCTCCCTTGGGTTCTAACCTGTTGCCT (site AGGCTCCCTAG) | 0.547
AGGCTCCCTTGGGTTCTAACCTGTTGCCT (site AGTCTCCCTAG) | 0.619
AGGCTGTCTTGGGTTCTAACCTGTTGCCT (site AGGCTGACTAG) | 0.54
AGGCTGTCTTGGGTTCTAACCTGTTGCCT (site AGGCTGCCTAG) | 0.613
AGGCTGTCTTGGGTTCTAACCTGTTGCCT (site AGGCTGGCTAG) | 0.0597
AGGCTGTCTTGGGTTCTAACCTGTTGCCT (site AGGCTGTCTAG) | 1.84
AGGGAAGCTTGGGTTCTAACCTGTTGCCT (site AGGGAAGCTAG) | 0.879
AGGGAAGCTTGGGTTCTAACCTGTTGCCT (site AGGGCAGCTAG) | 0.385
AGGGAAGCTTGGGTTCTAACCTGTTGCCT (site AGGGGAGCTAG) | 0.768
AGGGAAGCTTGGGTTCTAACCTGTTGCCT (site AGGGTAGCTAG) | 0.391
AGGGAATCTTGGGTTCTAACCTGTTGCCT (site AGAGAATCTAG) | 0.759
AGGGAATCTTGGGTTCTAACCTGTTGCCT (site AGCGAATCTAG) | 0.124
AGGGAATCTTGGGTTCTAACCTGTTGCCT (site AGGGAATCTAG) | 1.04
AGGGAATCTTGGGTTCTAACCTGTTGCCT (site AGTGAATCTAG) | 0.182
AGGGATACTTGGGTTCTAACCTGTTGCGT (site AGGGATACTAC) | 3.32
AGGGATACTTGGGTTCTAACCTGTTGCGT (site ATGGATACTAC) | 1.58
AGGGATACTTGGGTTCTAACCTGTTGCTT (site AGGGAGACTAA) | 0.303
AGGGATACTTGGGTTCTAACCTGTTGCTT (site AGGGATACTAA) | 1.42
AGGGCATCTTGGGTTCTAACCTGTTGCCT (site AGGGCATCTAG) | 0.122
